Source: ChEMBL document CHEMBL1201862, “PubChem BioAssay data set” (2004)
Active and inactive are the calls of the source.

How the values were obtained:
[1] = HEK293T cytotoxicity, dose response, cytotoxicity control for miR-122 modulator project, cell-based, inhibitor set, cherry-pick, set 2 (AID 720697); assay type: functional
[2] = cells
[3] = molecular target: T1, Oxysterols receptor LXR-beta (Homo sapiens, UniProt P55055); assay type: functional, cell-based
T1 sequence (P55055 whole entry): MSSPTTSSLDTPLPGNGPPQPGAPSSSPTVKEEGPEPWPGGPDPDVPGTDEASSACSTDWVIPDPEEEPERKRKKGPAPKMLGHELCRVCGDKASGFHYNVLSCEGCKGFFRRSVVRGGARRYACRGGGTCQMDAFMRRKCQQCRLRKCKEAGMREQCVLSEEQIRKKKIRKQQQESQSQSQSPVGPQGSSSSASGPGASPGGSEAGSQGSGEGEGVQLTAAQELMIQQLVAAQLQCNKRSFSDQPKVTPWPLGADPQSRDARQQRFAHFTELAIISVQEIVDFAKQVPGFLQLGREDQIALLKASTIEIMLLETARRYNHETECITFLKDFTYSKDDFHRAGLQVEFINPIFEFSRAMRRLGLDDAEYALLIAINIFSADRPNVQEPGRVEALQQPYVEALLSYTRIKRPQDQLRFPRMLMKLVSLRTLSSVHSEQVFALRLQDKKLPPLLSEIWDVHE

[4] = molecular target: T1, Oxysterols receptor LXR-beta; assay type: functional, cell-based; remark: listed apart in the source
[5] = LGR2 antagonists, dose response, cell-based, HEK293, CRE-luciferase reporter, cherry pick, set 2 (AID 743343); assay type: functional;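 also: transfected cells were stimulated with diluted bursicon conditioned medium after compound addition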
[6] = inhibitors of clade B AD8 Env fusion, dose response, cell-based, cherry-pick (AID 652062); assay type: functional;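 also: luciferase signal from cell-cell fusion driven by HIV-1 clade B AD8 Env; potency is for inhibitors of fusion seen as a drop in luminescence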
[7] = ZM109 Env clade C HIV-1 fusion inhibitors, dose response, HeLa effector, CEM target cells, luciferase, cherry-pick (AID 652058); assay type: functional, cell-based
[8] = inhibitors of HIV Env-driven cell fusion, dose response, cherry-pick (AID 652057); assay type: functional, cell-based
[9] = A549 cell cytotoxicity, dose response, cytotoxicity control, plate reader, cherry-pick, antagonist series (AID 743412); assay type: functional, cell-based
[10] = molecular target: T2, Rac GTPase-activating protein 1 (Homo sapiens, UniProt Q9H0H5); test: MgcRacGAP GTPase-activating activity inhibitors, confirmation, biochemical, ADP Hunter fluorescence, primary and confirmatory (AID 624330); assay type: functional
T2 sequence (Q9H0H5 whole entry): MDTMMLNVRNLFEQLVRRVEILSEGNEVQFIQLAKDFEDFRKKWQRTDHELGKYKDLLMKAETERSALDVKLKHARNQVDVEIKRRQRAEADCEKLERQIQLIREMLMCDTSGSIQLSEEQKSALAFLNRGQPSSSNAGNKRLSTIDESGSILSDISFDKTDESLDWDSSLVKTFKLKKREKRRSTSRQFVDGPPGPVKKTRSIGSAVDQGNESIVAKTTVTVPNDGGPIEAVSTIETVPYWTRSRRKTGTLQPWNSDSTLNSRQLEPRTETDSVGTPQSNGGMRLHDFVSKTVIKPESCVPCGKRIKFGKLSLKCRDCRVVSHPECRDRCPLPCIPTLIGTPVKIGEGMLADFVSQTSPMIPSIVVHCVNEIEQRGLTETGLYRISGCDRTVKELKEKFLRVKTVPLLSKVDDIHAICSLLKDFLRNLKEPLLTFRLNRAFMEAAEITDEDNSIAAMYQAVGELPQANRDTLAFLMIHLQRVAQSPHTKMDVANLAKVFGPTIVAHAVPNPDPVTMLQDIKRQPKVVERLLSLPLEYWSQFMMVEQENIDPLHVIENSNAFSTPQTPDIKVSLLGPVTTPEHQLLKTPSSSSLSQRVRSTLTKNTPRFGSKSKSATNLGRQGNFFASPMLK

[11] = off-target signal loss in HeLa-CEM21 co-culture – HeLa F-luc CTL cells, cherry-picked, counter-screen for HIV-1 Env fusion inhibitor project, dose response (AID 652040); assay type: functional, cell-based;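 also: potency for signal decrease marking cytotoxic or nonspecific inhibition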
[12] = molecular target: Paired box protein Pax-8 (Homo sapiens, UniProt Q06710); test: inhibitors of PAX8-driven TPO luciferase reporter, dose response, RMG-I cells, cherry-pick (AID 687027); assay type: functional, cell-based;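 also: luciferase reporter driven by Pax8 target thyroperoxidase promoter measured by SteadyGlo luminescence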
Chain of Paired box protein Pax-8 (Q06710 whole entry): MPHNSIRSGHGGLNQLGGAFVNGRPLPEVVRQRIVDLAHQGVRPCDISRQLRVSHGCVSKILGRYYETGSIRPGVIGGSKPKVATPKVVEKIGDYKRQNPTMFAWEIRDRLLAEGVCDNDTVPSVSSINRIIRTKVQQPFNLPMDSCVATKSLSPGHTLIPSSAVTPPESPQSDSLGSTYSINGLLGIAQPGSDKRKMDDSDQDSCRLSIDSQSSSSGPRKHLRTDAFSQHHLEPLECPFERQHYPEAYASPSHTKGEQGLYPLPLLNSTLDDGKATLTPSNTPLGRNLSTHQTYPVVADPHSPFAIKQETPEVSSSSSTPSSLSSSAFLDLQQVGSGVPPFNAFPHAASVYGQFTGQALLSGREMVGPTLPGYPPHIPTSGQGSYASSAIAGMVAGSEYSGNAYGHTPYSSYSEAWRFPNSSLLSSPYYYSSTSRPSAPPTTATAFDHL

[13] = MC4R antagonists, dose response, counter-screen for LGR2 antagonist project, cell-based, plate reader, cherry pick (AID 743444); assay type: functional;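 also: transfected HEK 293 cells stimulated with alpha-MSH peptide; potency of inhibitors of the alpha-MSH evoked signal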
[14] = human group III sPLA2 inhibitors, dose response, biochemical, QFRET, IC50 (AID 743457);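 also: green fluorescence rise as the enzyme cleaves BODIPY PC-A2 in liposomes; potency for inhibition of the enzyme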
[15] = HepG2 cell cytotoxicity, dose response, cytotoxicity control, ATP luminescence, cherry-pick, activator set 2 (AID 1053143); assay type: functional, cell-based
[16] = HepG2 cell cytotoxicity, dose response, cytotoxicity control, cherry-picked samples (AID 1159577); assay type: functional, cell-based
[17] = P. falciparum Dd2 growth inhibitors, dose response, SYBR Green, cherry-picked samples (AID 1159567); assay type: functional, cell-based
[18] = molecular target: T3, Histone-lysine N-methyltransferase NSD2 (Homo sapiens, UniProt O96028); assay type: biochemical
T3 sequence (O96028 whole entry): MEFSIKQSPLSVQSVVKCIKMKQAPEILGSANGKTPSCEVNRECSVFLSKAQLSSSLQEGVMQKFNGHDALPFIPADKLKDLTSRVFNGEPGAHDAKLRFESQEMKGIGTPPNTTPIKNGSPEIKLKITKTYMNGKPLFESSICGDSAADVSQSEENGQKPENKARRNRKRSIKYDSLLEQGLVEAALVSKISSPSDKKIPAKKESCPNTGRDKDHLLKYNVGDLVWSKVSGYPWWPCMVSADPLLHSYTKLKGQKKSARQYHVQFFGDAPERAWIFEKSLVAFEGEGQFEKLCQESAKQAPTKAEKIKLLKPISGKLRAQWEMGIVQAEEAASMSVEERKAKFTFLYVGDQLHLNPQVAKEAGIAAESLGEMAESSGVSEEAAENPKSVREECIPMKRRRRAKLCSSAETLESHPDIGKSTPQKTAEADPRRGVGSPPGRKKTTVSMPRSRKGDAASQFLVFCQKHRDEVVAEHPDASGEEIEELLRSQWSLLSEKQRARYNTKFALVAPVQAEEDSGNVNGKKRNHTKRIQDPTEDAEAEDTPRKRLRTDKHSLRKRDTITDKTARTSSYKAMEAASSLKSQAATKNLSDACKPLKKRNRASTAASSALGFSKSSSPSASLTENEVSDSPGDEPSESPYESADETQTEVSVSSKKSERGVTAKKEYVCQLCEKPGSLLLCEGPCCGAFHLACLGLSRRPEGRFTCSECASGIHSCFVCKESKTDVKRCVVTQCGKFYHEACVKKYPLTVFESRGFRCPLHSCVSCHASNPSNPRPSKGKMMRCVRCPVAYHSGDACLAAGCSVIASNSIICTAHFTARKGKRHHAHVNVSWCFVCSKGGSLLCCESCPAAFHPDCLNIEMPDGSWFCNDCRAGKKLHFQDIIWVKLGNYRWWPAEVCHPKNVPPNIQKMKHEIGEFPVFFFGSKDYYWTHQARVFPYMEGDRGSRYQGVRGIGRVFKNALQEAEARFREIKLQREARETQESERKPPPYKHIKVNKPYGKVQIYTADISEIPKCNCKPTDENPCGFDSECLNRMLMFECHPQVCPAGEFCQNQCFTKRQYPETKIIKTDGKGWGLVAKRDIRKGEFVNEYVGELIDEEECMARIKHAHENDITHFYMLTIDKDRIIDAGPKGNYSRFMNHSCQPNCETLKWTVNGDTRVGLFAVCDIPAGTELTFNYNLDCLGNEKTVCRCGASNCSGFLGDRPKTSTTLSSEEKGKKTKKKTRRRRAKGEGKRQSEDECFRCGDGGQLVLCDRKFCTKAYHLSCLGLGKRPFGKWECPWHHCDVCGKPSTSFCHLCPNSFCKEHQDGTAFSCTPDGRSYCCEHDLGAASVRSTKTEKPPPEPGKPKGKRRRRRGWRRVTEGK

[19] = molecular target: T4, Protein skinhead-1 (Caenorhabditis elegans, UniProt P34707); assay type: functional
T4 sequence (P34707 whole entry): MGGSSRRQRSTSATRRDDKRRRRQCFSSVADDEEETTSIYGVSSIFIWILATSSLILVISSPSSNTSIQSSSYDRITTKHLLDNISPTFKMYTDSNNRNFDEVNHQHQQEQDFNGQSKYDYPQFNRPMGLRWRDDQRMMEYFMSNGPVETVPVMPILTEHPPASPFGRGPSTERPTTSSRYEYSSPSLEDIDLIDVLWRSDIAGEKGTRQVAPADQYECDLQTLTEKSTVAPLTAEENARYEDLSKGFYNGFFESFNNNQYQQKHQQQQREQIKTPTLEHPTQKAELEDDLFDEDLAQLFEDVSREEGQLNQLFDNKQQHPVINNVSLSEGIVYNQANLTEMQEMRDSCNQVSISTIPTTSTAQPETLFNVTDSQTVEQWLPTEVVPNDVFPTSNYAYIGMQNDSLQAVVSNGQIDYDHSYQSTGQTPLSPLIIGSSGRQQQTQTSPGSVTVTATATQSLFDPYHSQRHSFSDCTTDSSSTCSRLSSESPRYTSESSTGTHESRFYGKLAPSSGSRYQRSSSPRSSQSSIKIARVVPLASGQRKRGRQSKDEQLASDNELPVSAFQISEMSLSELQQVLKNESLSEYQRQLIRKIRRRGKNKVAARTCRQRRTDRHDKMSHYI

[20] = molecular target: T5, RNA-editing ligase 1, mitochondrial (Trypanosoma brucei brucei, UniProt P86926); test: TbREL1 ligase inhibitors, dose response, biochemical, fluorescence, Trypanosoma brucei (AID 1117295); assay type: functional
T5 sequence (P86926 whole entry): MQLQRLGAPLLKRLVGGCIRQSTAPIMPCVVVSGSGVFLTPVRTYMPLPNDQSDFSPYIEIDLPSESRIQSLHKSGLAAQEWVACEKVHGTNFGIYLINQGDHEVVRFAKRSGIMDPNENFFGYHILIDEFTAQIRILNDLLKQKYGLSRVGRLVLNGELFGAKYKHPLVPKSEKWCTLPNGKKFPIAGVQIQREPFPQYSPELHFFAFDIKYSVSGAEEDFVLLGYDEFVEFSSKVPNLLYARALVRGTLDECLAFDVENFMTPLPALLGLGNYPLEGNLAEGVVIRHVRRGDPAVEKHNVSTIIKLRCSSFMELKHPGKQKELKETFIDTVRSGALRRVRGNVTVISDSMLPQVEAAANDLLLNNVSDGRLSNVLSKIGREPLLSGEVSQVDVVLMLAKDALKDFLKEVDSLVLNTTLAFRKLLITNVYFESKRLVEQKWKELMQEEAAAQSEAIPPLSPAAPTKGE

[21] = molecular target: T6, Mannose-6-phosphate isomerase (Homo sapiens, UniProt P34949); test: inhibitors of human PMI, primary screen, biochemical, fluorescence intensity, coupled assay (AID 1209)
T6 sequence (P34949 whole entry): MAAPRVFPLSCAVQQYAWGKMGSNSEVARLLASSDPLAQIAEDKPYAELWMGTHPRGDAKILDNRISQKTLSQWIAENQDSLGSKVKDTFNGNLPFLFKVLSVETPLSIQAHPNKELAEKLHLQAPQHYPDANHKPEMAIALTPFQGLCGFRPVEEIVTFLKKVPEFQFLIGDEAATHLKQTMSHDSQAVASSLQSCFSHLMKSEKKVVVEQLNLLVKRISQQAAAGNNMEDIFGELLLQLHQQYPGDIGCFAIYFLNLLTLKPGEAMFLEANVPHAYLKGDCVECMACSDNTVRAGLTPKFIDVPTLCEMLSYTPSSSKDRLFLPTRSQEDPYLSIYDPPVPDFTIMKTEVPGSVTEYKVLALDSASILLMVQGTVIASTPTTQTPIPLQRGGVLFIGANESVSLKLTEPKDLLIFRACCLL

[22] = molecular target: T6, Mannose-6-phosphate isomerase; test: human PMI inhibitors, high substrate, primary screen, biochemical, fluorescence intensity, high mannose 6-phosphate (AID 1220)
[23] = HEK293T cytotoxicity, dose response, cytotoxicity control for miR-122 modulator project, cell-based, activator set, cherry-pick (AID 720690); assay type: functional;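 also: HEK293T human cells scored for general mammalian cytotoxicity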

## COc1ccc(CC(NC(C)=O)C(=O)N2CCN(C(=O)N(C(C)C)C(C)C)CC2)cc1 (centres undefined)
[1]
  AC50: 0.834 µM (active)

## COCCN(C[C@@H]1[C@@H](c2ccccc2)[C@H](CO)N1C(=O)C1CC1)C(C)=O
[1]
  AC50: 0.502 µM (active)

## C/C(=N/N=C(/C)c1cccs1)c1cccs1
[2]
  EC50: > 67.6 µM (inactive)
[3]
  EC50: > 67.6 µM (inactive)

## CN(C)c1cccc(-c2cnc(N3CCC(C(N)=O)CC3)s2)c1
[4]
  EC50: > 67.5 µM (inactive)

## Cc1ccsc1/C=N/Nc1cccc(C(=O)O)c1
[5]
  AC50: 1.3 µM (active)
[6]
  AC50: 2.65 µM (active)
[7]
  AC50: 7.12 µM (active)
[8]
  AC50: 1.32 µM (active)
[2]
  EC50: > 67.5 µM (inactive)
[9]
  AC50: > 52 µM (inactive)
[10]
  IC50: 92.5 µM (active)
[11]
  AC50: 2.45 µM (active)
[12]
  AC50: 4.41 µM (active)
[13]
  AC50: 1.14 µM (active)
[3]
  EC50: > 67.5 µM (inactive)

## O=C(NNC(=S)Nc1ccc(Br)cc1)c1cccnc1
[14]
  IC50: > 122 µM (inactive)

## COC(=O)c1sc2nc3c(cc2c1N)CCCC3
[4]
  EC50: > 67.5 µM (inactive)

## CC(=O)CC1(O)C(=O)N(Cc2ccccc2)c2ccccc21 (centres undefined)
[15]
  AC50: > 52 µM (inactive)

## CN(C)CC(=O)N[C@@H]1C[C@@H]2O[C@@H](CO)CC[C@@H]2O[C@@H]1CCc1ccc(C2=CCCCC2)cc1
[16]
  AC50: 27.7 µM (active)
[17]
  AC50: 6.13 µM (active)

## CNCCCC12CCC(c3ccccc31)c1ccccc12 [MAPROTILINE]
[18]
  AC50: > 20 µM (inactive)

## Fc1cccc(F)c1/C=C/c1ccc2ccccc2n1
[2]
  EC50: > 67.5 µM (inactive)
[19]
  IC50: 36.8 µM (active)
[3]
  EC50: > 67.5 µM (inactive)

## Cc1ccc(C(=O)Nc2ncc(Cc3ccc(F)cc3)s2)o1
[15]
  AC50: 12 µM (active)

## CCN(CC)c1ccc(/C=N/NC(=S)NC)c(O)c1
[14]
  IC50: > 122 µM (inactive)
[10]
  IC50: 58.2 µM (active)

## COC(=O)C1=C(C)N(Cc2cccc(C(F)(F)F)c2)C(NCc2cc(OC)c(OC)c(OC)c2)=NC1CCc1ccccc1 (centres undefined)
[20]
  IC50: > 96.6 µM (inactive)

## CN(Cc1c(O)ccc2c1oc(=O)c1ccccc12)C1CCCCC1
[18]
  AC50: 4.96 µM (active)
[21]
  IC50: 5.12 µM (active)
[22]
  IC50: 7.13 µM (active)

## Cc1ccc(-c2nnc(NC3CCCC3)s2)cc1
[4]
  EC50: > 67.6 µM (inactive)

## CNC[C@H]1Oc2cc(C#CC3CCCC3)ccc2S(=O)(=O)N([C@H](C)CO)C[C@H]1C
[23]
  AC50: 30.9 µM (active)
